The results in this text go back to patent US20170298347A1, “NOVEL FUSION-CIRCULAR RNAs AND USES THEREOF” (BETH ISRAEL DEACONESS MEDICAL CENTER, priority 2016, published 2017).

For this assay, the system named is K562 cells. Kind of assay: Apoptosis (AnnexinV/7-AAD) in K562 cells treated with Ara-C or ATO. The assay is classed as cell-based, human. The conditions noted are these: K562 transduced with empty vector; ATO 1 μM, Ara-C 0.5 μM. How it is done:
K562 cells (Lozzio and Lozzio, 1979) were then transduced with viral vectors expressing f-circM9. Cells transduced only with an empty vector were used as control. F-circM9-expressing cells were sorted for a pure population and were subsequently subjected to treatment with Ara-C and ATO. […] On the contrary, clear differences were noticed in treated cells.
THP-1, K562, U937, HL-60, Kasumi and NB4 cell lines were maintained in RPMI medium supplemented with 10% FBS. MEFs Arf−/− cells were grown in DMEM supplemented with 10% FBS. Primary leukemic cells transduced with MLL/AF9 cDNA were maintained in StemSpan medium (Stem Cell Technologies) supplemented with IL6 (15 ng/ml), IL3 (15 ng/ml) TPO (50 ng/ml) and SCF (50 ng/ml) during the transduction with retroviral vectors. Cells were grown at 37° C. in a 5% CO2 humidified incubator. Fractionation of the cells to separate nucleus and cytoplasm has been performed using PARIS-kit (Ambion) following the manufacturer's instructions. The efficiency of the separation of the 2 fractions was assessed by Western blot analysis of β-actin (cytosol) and […] (nucleus). […]
Apoptotic cells were analyzed with 7AAD and Annexin-V-APC. Cells were stained for 15 minutes with both markers and then analyzed using LRSII (BD, Pharmingen).

For the compound `Nc1ccn([C@@H]2O[C@H](CO)[C@@H](O)[C@@H]2O)c(=O)n1` [Ara-C, cytarabine], the “apoptosis upon drug treatment” value is “signs of apoptosis”.

Arsenic trioxide [ATO]: the “apoptosis upon drug treatment” value was “signs of apoptosis”.
